According to US20150099667A1, “METHODS FOR THE ACTIVATION OF SILENT GENES IN A MICROORGANISM” (priority 2012, published 2015):
Like-named read-outs stand apart in the source and are kept apart here.

What was measured:
Assay in all cases: Biological screening of extracts of induced Actinobacteria, BacTiter-Glo assay
Type in all cases: cell-based
[1] = test system: Pseudomonas aeruginosa ATCC 27853
[2] = test system: Staphylococcus aureus ATCC 33592
[3] = test system: Candida albicans ATCC 753; conditions: FIG. 10
[4] = test system: Escherichia coli ATCC 35218; conditions: FIG. 4
[5] = chemical inducer 3.3 μg/ml in medium 5294

## [Cl-].[Cl-].[Co+2] [CoCl2]
[1]
  extracts showing >50% activity against Pseudomonas aeruginosa ATCC 27853, share by culture condition: 3.8%
[2]
  extracts that showed >50% activity against Staphylococcus aureus ATCC 33592, share by culture condition: 3.6%

## C[S+](C)[O-] [DMSO]
[3]; chemical inducer 10 μl/ml in medium 5294
  extracts that showed >50% activity against Candida albicans ATCC 753, share by culture condition: 3.5%
[4]; chemical inducer 50 μl/ml in medium 5294
  extracts that showed >50% activity against Escherichia coli ATCC 35218, share by culture condition: 3.6%

## [Cl][Ni][Cl] [NiCl2]
[3]; [5]
  extracts that showed >50% activity against Candida albicans ATCC 753, share by culture condition: 3.7%

## O=[Se]([O-])O.[Na+] [NaHSeO3]
[4]; [5]
  extracts that showed >50% activity against Escherichia coli ATCC 35218, share by culture condition: 3.3%

## [Cl-].[Cl-].[Sr+2] [SrCl2]
[3]; chemical inducer 1.6 μg/ml in medium 5294
  extracts that showed >50% activity against Candida albicans ATCC 753, share by culture condition: 3.5%
[1]; chemical inducer 3.3 μg/ml in medium 5294, FIG. 6
  extracts showing >50% activity against Pseudomonas aeruginosa ATCC 27853, share by culture condition: 3.8%
[2]; chemical inducer 3.3 μg/ml in medium 5294, FIG. 8
  extracts that showed >50% activity against Staphylococcus aureus ATCC 33592, share by culture condition: 3.5%
